Read-outs that look alike come from different tables or passages of the source.
Test system: primary neuronal cultures from embryonic rat brains
Assay: Rat oscillation assay (FLIPR, neuronal calcium oscillations)
Type: cell-based
Conditions: Rattus norvegicus
Experimental: A) Rat Oscillation Assay:
This assay is a functional phenotypic assay designed to mimic epileptic seizures using primary neuronal cultures from embryonic rat brains, which form a functional neuronal network that generate synchronized intracellular calcium concentration oscillations when cultured at high density in 384-well plate. The epileptic phenotype is induced by incubating the neurons in magnesium-free assay buffer, that results in increased probability of NMDA receptor activation, leading to an increased frequency and amplitude of intracellular calcium oscillations. Once neurons are incubated with the calcium indicator dye Fluo-8 AM (Tebu-bio), neuronal calcium oscillations can be monitored in real time using FLIPR® Tetra (fluorometric plate reader, Molecular Devices). With these recordings, the effect of anti-epileptic drugs can be quantified. The anti-epileptic effect of compounds, which activate directly or indirectly the Kv7 channels can be modulated by the Kv7 channel blocker XE-991. The assay was performed as described previously (Pacico N, Mingorance-Le Meur A. New In Vitro Phenotypic Assay for Epilepsy: Fluorescent Measurement of Synchronized Neuronal Calcium Oscillations. PLoS ONE 9(1) 2014) with modifications described hereafter.
Animal care followed standard procedures in accordance with swiss institutional guidelines. Dissociated neuronal cultures were obtained from cerebral cortices of embryonic Wistar rats at embryonic stage E18 (Charles River). The uterine horns were removed by caesarian surgery from deeply anesthetized rats (Isofurane) and sacrificed by decapitation. The embryos were decapitated by closing forceps. The brains were isolated and dissected one by one in ice-cold PBS (Life Technologies) under optical control using a binocular. Meninges, olfactory bulbs, and basal ganglia were removed. Cortical hemispheres (still including the hippocampus) were cut in small pieces with tweezers and placed on ice in pre-chilled Hibernate-E medium (Life technology). The hemispheres were then incubated in 10 mL of Hibernate-E containing 15 U/mL papain (Worthington) for 25 min at 30° C. with gentle mixing every 10 min. Genomic DNA was then digested by prolonging the incubation during 10 min at 37° C. in presence of 4 U/mL rDNase I (Ambion). The obtained suspension was then centrifuged at 800 g for 5 min and the cell pellet was resuspended in 2 mL Hibernate-E and gently dissociated by pipetting up and down 10 times with a plastic Pasteur pipette resulting in a homogenous cell suspension. This suspension was immediately filtered through a 70 µm cell strainer (MACS® SmartStrainer, Miltenyi), collected in 10 mL Hibernate-E and centrifuged at 800 g for 5 min. The cell pellet was resuspended in Neurobasal medium, supplemented with 2% B-27, 0.5 mM Glutamax-I, 100 U/mL penicillin, 100 µg/mL streptomycin (Life Technologies) and diluted at the final concentration of 300′000 cells/mL. One day before plating the cells, 384-well plates were coated with 25 μL/well of 0.1% poly-L-lysine solution (Sigma), incubated overnight at 37° C., washed two times with sterile distilled water and allowed to dry at room temperature for >2 h. The neurons were seeded at a density of 15′000 cells/well in 50 μL/well in a 384-well black, clear-bottomed plates (Corning) and subsequently maintained in an incubator at 37° C., 5% CO2 and 95% humidity for 8 to 10 days. After 3 and 7 days, 40% of media was renewed under sterile conditions.
Protocol Rat Oscillation Assay
Neurons seeded in the assay plates were washed with Hank's balanced salt solution (HBSS) devoid of Ca^2+ and Mg^2+, supplemented with 20 mM HEPES (Life Technologies) and 2 mM CaCl2 (Sigma), pH 7.4 (hereafter called Assay buffer) using a Biotek EL406 plate washer. Neurons were loaded with 1 μM Fluo-8 AM in Assay buffer for 15 min at 37° C., 5% CO2. […]

[1] = 20 min, AUC of fluorescence measured 20 min after compound addition, read-out: FLIPR: IC50 [nM] 20 min
[2] = Acute phase, ratio of AUC fluorescence before and after compound addition, read-out: FLIPR: IC50 [nM] acute

COc1c(OCC(F)(F)F)cccc1C(C)NC(=O)NC1CC2(CCC2)C1 (racemic) [Example 31, (±)-1-{1-[2-Methoxy-3-(2,2,2-trifluoro-ethoxy)-phenyl]-ethyl}-3-spiro[3.3]hept-2-yl-urea]
IC50 [1]: 25 nM
IC50 [2]: 20 nM

Cc1cc(OCC(F)(F)F)cc(C(C)NC(=O)NC2CC3(CCC3)C2)c1 (racemic) [Example 32, (±)-1-{1-[3-Methyl-5-(2,2,2-trifluoro-ethoxy)-phenyl]-ethyl}-3-spiro[3.3]hept-2-yl-urea]
IC50 [1]: 14 nM
IC50 [2]: 24 nM

CC(NC(=O)NC1CC2(CCC2)C1)c1cc(Cl)cc(OCC(F)(F)F)c1 (racemic) [Example 33, (±)-1-{1-[3-Chloro-5-(2,2,2-trifluoro-ethoxy)-phenyl]-ethyl}-3-spiro[3.3]hept-2-yl-urea]
IC50 [1]: 65 nM
IC50 [2]: 80 nM

CC(NC(=O)NC1CC2(CCC2)C1)c1cccc(S(F)(F)(F)(F)F)c1 (racemic) [Example 34, (±)-1-(1-(3-(pentafluoro-λ^6-sulfaneyl)phenyl)ethyl)-3-(spiro[3.3]heptan-2-yl)urea]
IC50 [1]: 8.5 nM
IC50 [2]: 6.7 nM

CC(NC(=O)NC1CC2(CCC2)C1)c1cccc(S(C)(=O)=O)c1 (racemic) [Example 36, (±)-1-[1-(3-Methanesulfonyl-phenyl)-ethyl]-3-spiro[3.3]hept-2-yl-urea]
IC50 [1]: 330 nM
IC50 [2]: 236 nM

CC(NC(=O)NC1CC2(CCC2)C1)c1cc(OCC(F)(F)F)ccc1Cl (racemic) [Example 39, (±)-1-{1-[2-Chloro-5-(2,2,2-trifluoro-ethoxy)-phenyl]-ethyl}-3-spiro[3.3]hept-2-yl-urea]
IC50 [1]: 571 nM
IC50 [2]: 487 nM

COc1ccc(OCC(F)(F)F)cc1C(C)NC(=O)NC1CC2(CCC2)C1 (racemic) [Example 40, (±)-1-{1-[2-Methoxy-5-(2,2,2-trifluoro-ethoxy)-phenyl]-ethyl}-3-spiro[3.3]hept-2-yl-urea]
IC50 [1]: 382 nM
IC50 [2]: 351 nM

CC(C)(O)C(NC(=O)NC1CC2(CCC2)C1)c1cccc(C(F)(F)F)c1 (racemic) [Example 45, (±)-1-[2-Hydroxy-2-methyl-1-(3-trifluoromethyl-phenyl)-propyl]-3-spiro[3.3]hept-2-yl-urea]
IC50 [1]: 628 nM
IC50 [2]: 549 nM

CC(NC(=O)NC1CC2(CCC2)C1)c1cccc2c1OC(F)(F)O2 (racemic) [Example 47, (±)-1-[1-(2,2-Difluoro-benzo[1,3]dioxol-4-yl)-ethyl]-3-spiro[3.3]hept-2-yl-urea]
IC50 [1]: 222 nM
IC50 [2]: 103 nM

CN(C)CC(NC(=O)NC1CC2(CCC2)C1)c1cccc(OCC(F)(F)F)n1 (racemic) [Example 48, (±)-1-{2-Dimethylamino-1-[6-(2,2,2-trifluoro-ethoxy)-pyridin-2-yl]-ethyl}-3-spiro[3.3]hept-2-yl-urea]
IC50 [1]: 138 nM
IC50 [2]: 510 nM

COCC(c1ccnc(OCC(F)(F)F)c1)N(C)C(=O)NC1CC2(CCC2)C1 (racemic) [Example 50, (±)-1-{2-Methoxy-1-[2-(2,2,2-trifluoro-ethoxy)-pyridin-4-yl]-ethyl}-1-methyl-3-spiro[3.3]hept-2-yl-urea]
IC50 [1]: 118 nM
IC50 [2]: 80 nM

COCC1c2cccc(OCC(F)(F)F)c2CCN1C(=O)NC1CC2(CCC2)C1 (racemic) [Example 54, (±)-1-Methoxymethyl-5-(2,2,2-trifluoro-ethoxy)-3,4-dihydro-1H-isoquinoline-2-carboxylic acid spiro[3.3]hept-2-ylamide]
IC50 [1]: 244 nM
IC50 [2]: 207 nM

CC(NC(=O)NC1CC2(CCC2)C1)c1cc(OCC(F)(F)F)ncn1 (racemic) [Example 61, (±)-1-Spiro[3.3]hept-2-yl-3-{1-[6-(2,2,2-trifluoro-ethoxy)-pyrimidin-4-yl]-ethyl}-urea]
IC50 [1]: 25 nM
IC50 [2]: 14 nM

NC(=O)C(NC(=O)NC1CC2(CCC2)C1)c1cccc(C(F)(F)F)c1 (racemic) [Example 62, (±)-2-(3-Spiro[3.3]hept-2-yl-ureido)-2-(3-trifluoromethyl-phenyl)-acetamide]
IC50 [1]: 65 nM
IC50 [2]: 50 nM

CNC(=O)C(NC(=O)NC1CC2(CCC2)C1)c1cccc(C(F)(F)F)c1 (racemic) [Example 63, (±)-N-Methyl-2-(3-spiro[3.3]hept-2-yl-ureido)-2-(3-trifluoromethyl-phenyl)-acetamide]
IC50 [1]: 92 nM
IC50 [2]: 46 nM

CS(=O)(=O)CC(NC(=O)NC1CC2(CCC2)C1)c1cccc(OC(F)(F)F)c1 (racemic) [Example 64, (±)-1-[2-Methanesulfonyl-1-(3-trifluoromethoxy-phenyl)-ethyl]-3-spiro[3.3]hept-2-yl-urea]
IC50 [1]: 47 nM
IC50 [2]: 44 nM

CC(NC(=O)NC1CC2(CCC2)C1)c1ccc2c(c1)OC(F)(F)O2 (racemic) [Example 65, (±)-1-[1-(2,2-Difluoro-benzo[1,3]dioxol-5-yl)-ethyl]-3-spiro[3.3]hept-2-yl-urea]
IC50 [1]: 10 nM
IC50 [2]: 6.7 nM

N#CCC(NC(=O)NC1CC2(CCC2)C1)c1cccc(OC(F)(F)F)c1 (racemic) [Example 66, (±)-1-[2-Cyano-1-(3-trifluoromethoxy-phenyl)-ethyl]-3-spiro[3.3]hept-2-yl-urea]
IC50 [1]: 17 nM
IC50 [2]: 8.2 nM

N#CCC(NC(=O)NC1CC2(CCC2)C1)c1cccc(C(F)(F)F)c1 (racemic) [Example 67, (±)-1-[2-Cyano-1-(3-trifluoromethyl-phenyl)-ethyl]-3-spiro[3.3]hept-2-yl-urea]
IC50 [1]: 11 nM
IC50 [2]: 10 nM

Cc1nc(OCC(F)(F)F)cc(C(C)NC(=O)NC2CC3(CCC3)C2)n1 (racemic) [Example 68, (±)-1-{1-[2-Methyl-6-(2,2,2-trifluoro-ethoxy)-pyrimidin-4-yl]-ethyl}-3-spiro[3.3]hept-2-yl-urea]
IC50 [1]: 18 nM
IC50 [2]: 18 nM

CS(=O)(=O)CC(NC(=O)NC1CC2(CCC2)C1)c1cccc(C(F)(F)F)c1 (racemic) [Example 69, (±)-1-[2-Methanesulfonyl-1-(3-trifluoromethyl-phenyl)-ethyl]-3-spiro[3.3]hept-2-yl-urea]
IC50 [1]: 83 nM
IC50 [2]: 95 nM

COCCOCC(NC(=O)NC1CC2(CCC2)C1)c1cccc(C(F)(F)F)c1 (racemic) [Example 71, (±)-1-[2-(2-Methoxy-ethoxy)-1-(3-trifluoromethyl-phenyl)-ethyl]-3-spiro[3.3]hept-2-yl-urea]
IC50 [1]: 105 nM
IC50 [2]: 92 nM

CC(C)OCC(NC(=O)NC1CC2(CCC2)C1)c1cccc(C(F)(F)F)c1 (racemic) [Example 72, (±)-1-[2-Isopropoxy-1-(3-trifluoromethyl-phenyl)-ethyl]-3-spiro[3.3]hept-2-yl-urea]
IC50 [1]: 238 nM
IC50 [2]: 266 nM

CCOCCC(NC(=O)NC1CC2(CCC2)C1)c1cccc(C(F)(F)F)c1 (racemic) [Example 73, (±)-1-[3-Ethoxy-1-(3-trifluoromethyl-phenyl)-propyl]-3-spiro[3.3]hept-2-yl-urea]
IC50 [1]: 244 nM
IC50 [2]: 305 nM

O=C(NC1CC2(CCC2)C1)NC(CCO)c1cccc(C(F)(F)F)c1 (racemic) [Example 74, (±)-1-[3-Hydroxy-1-(3-trifluoromethyl-phenyl)-propyl]-3-spiro[3.3]hept-2-yl-urea]
IC50 [1]: 30 nM
IC50 [2]: 27 nM

CSCCC(NC(=O)NC1CC2(CCC2)C1)c1cccc(C(F)(F)F)c1 (racemic) [Example 75, (±)-1-[3-Methylsulfanyl-1-(3-trifluoromethyl-phenyl)-propyl]-3-spiro[3.3]hept-2-yl-urea]
IC50 [1]: 129 nM
IC50 [2]: 106 nM

O=C(NC1CC2(CCC2)C1)NC(CO)c1cccc(C(F)(F)F)c1 (racemic) [Example 76, (±)-1-[2-Hydroxy-1-(3-trifluoromethyl-phenyl)-ethyl]-3-spiro[3.3]hept-2-yl-urea]
IC50 [1]: 17 nM
IC50 [2]: 19 nM
